Laboratory results published in the NIST ThermoML archive (doi:10.1016/j.jct.2014.05.003).
± gives the expanded uncertainty stated by the source.

How the values were obtained:
[1] = wn = mass fraction of the nth substance listed; conditions: 298.15 K, 100 kPa, Liquid, Vibrating tube method
[2] = relative permittivity at zero frequency (dimensionless); wn = mass fraction of the nth substance listed; conditions: 298.15 K, 100 kPa, Liquid, Coaxial cylinder capacitor

mass density ([1]; w1 = 0.1) | mass density ([1]; w1 = 0.2) | mass density ([1]; w1 = 0.3) | relative permittivity at zero frequency ([2]; w1 = 0.1) | relative permittivity at zero frequency ([2]; w1 = 0.2) | relative permittivity at zero frequency ([2]; w1 = 0.3) | SMILES
996.3 ± 1 kg/m3 | 996.4 ± 1 kg/m3 | 996.9 ± 1 kg/m3 | 76.8 ± 0.2 | 74.6 ± 0.2 | 72.2 ± 0.2 | CN(C)C=O [dimethylformamide] + O
995.7 ± 1 kg/m3 | 996.2 ± 1 kg/m3 | 997.3 ± 1 kg/m3 | – | – | – | CC(=O)N(C)C [N,N-dimethylethanamide] + O
